Reference: PMC5400620, “Preclinical therapeutic efficacy of a novel blood-brain barrier-penetrant dual PI3K/mTOR inhibitor with preferential response in PI3K/PTEN mutant glioma” (Oncotarget, 2017)

Legend:
p110β = p110β (Homo sapiens, UniProt P42338); experiment: class I PI3K HTRF assay, p110β; assay type: biochemical
Procedure: DS7423 inhibits PI3K/mTOR activity likely binding to the ATP binding cleft of these enzymes and was tested against class I PI3K and other kinases using an HTRF assay format and direct measurement of substrate phosphorylation, respectively.

U87 glioma cells = experiment: U87 orthotopic intracranial xenograft efficacy; assay type: in vivo
Source text: (§1) Figure 4 DS7423 suppressed tumor growth and prolonged survival in an orthotopic mouse xenograft model U87 glioma cells U87 and GSC11 GICs were used to generate orthotopic xenografts in mouse brains. Tumor-bearing mice received either vehicle or DS7423 at the indicated dose/schedules. Two mice were killed at the indicated time points (2 weeks and 4 weeks) after DS treatment. A. and B. Kaplan–Meier survival plots of tumor-bearing mice in vehicle or DS7423 treatment groups (n = 10). The log-rank method was used to test for a difference between groups. […] Bar, 100 μm.
(§2) 6 to 8-week-old male nude mice were obtained from the MD Anderson breeding facility and used in accordance with the Animal Care and Use Guidelines of MD Anderson Cancer Center. In this study, 5 × 10^5 U87 (PTEN mutant) cells in DMEM/F12 serum-free media (5 μL) and GSC11 (PIK3CA mutant and PTEN mutant) were implanted intracranially into each mouse using a guide-screw system, as described previously. Four days after injection of the tumor cells, mice were randomized into 2 groups (10 animals per group). Mice in-group 1 was given 6 mg/kg DS7423 via oral gavage, and mice in-group 2 were given the vehicle (0.5% methyl cellulose) used for administration of DS (control). […] Mice were monitored daily and euthanized when they became moribund. […]

GSC11 GICs = experiment: GSC11 orthotopic intracranial xenograft efficacy; assay type: in vivo, nude mice; settings: GSC11 tumor-bearing mice, 6 mg/kg oral; control 47 days; P=0.014
Source text: as §1, §2

LN229 = LN229 intracranial model efficacy; assay type: in vivo; settings: LN229 tumor-bearing mice, PTEN wild type
Procedure: We studied the efficacy of DS in 2 intracranial tumor models; the U87 glioma cell line and the GSC11 glioma initiating cell line are both PTEN mutant and GSC-11 is PIK3CA mutant cells. The median survival time of the U87 tumor-bearing control mice (i.e., those injected with methylcellulose only) was 30 days, whereas the median survival time of the U87 tumor-bearing mice orally treated with 6 mg/kg of DS was 46 days (Figure 4A; P=0.025). The median survival of the GSC11 tumor-bearing mice orally treated with 6 mg/kg of DS was 61 days (Figure 4B; P=0.014) compared with 47 days for the control-treated mice. The in vivo therapeutic efficacy of DS was assessed by plotting the Kaplan-Meier survival curves of the animals, and group data were compared using the log-rank test (Figure 4A and 4B). […] We also studied LN229 a PTEN wild type cell line to study the efficacy of DS in intracranial model.

[1] = tested on: PI3K/mTOR signaling (pAkt, pS6); experiment: pAkt and pS6 in U87 tumors or brain after a single PO dose; assay type: in vivo, mice; settings: single PO dose 6 mg/kg, compared with untreated animals
Procedure: Figure 1 A. and B. Plasma and brain concentration-time profile of DS7423 following a single PO administration (6 mg/kg) to nude mice. C. Western blot of mouse brains probed with antibodies against pAkt (Ser473) and pS6 (Ser235/236) in a time profile similar to that shown in A and B. Results are presented as the mean ± SE of six animals in each group.
To correlate DS brain concentration with the modulation of PI3K/mTOR signaling in U87 tumors, we used immunohistochemical analysis to study the signaling alterations in tumor sections derived from mice at similar time points following a single PO dose of DS (6 mg/kg). Tissue sections were probed with antibodies against pAkt and pS6. […] DS plasma and brain concentrations decreased after 24 hours, which correlated with an increase in pAkt and pS6.

Akt phosphorylation = experiment: Western blot of PI3K signaling proteins in glioma cells; assay type: cell-based, human; settings: 200 nM DS
Procedure: The levels of PI3K/mTOR signaling proteins, including pAkt, pS6 and P4EBP1 decreased in a dose- and time-dependent manner in all tested glioma cells (Figure 2A and 2B) as well as in the glioma tumor-initiating cell line GSC11 (Figure 2A and 2B). DS suppression of pAkt caused subsequent effects on Akt effectors such as 4EBP1 and S6 at 200-nM concentrations, and the maximum effects on Akt phosphorylation were observed 8 hours after 200 nM DS treatment.
Figure 2 DS7423 suppresses the PI3K signaling pathway in a dose- or time-dependent manner A. and B. Western blotting was performed to analyze the cellular protein levels of PI3K signaling proteins in U87 and LN229 glioma cells and GSC11 GICs. Cells were treated with the indicated doses of DS7423 for the indicated time intervals. DS7423 inhibited phosphorylation of the PI3K signaling components pAKT, pS6, and p4EBP1 in a time-dependent manner. D. Cells treated with the indicated doses of DS7423 for 24 hours. DS7423 inhibited phosphorylation of the PI3K signaling components pAKT, pS6, and p4EBP1 in a dose-dependent manner.
Cells were incubated with DS and then harvested and extracts were prepared for immunoblotting analysis. […]

p110β, sequence (P42338 whole entry): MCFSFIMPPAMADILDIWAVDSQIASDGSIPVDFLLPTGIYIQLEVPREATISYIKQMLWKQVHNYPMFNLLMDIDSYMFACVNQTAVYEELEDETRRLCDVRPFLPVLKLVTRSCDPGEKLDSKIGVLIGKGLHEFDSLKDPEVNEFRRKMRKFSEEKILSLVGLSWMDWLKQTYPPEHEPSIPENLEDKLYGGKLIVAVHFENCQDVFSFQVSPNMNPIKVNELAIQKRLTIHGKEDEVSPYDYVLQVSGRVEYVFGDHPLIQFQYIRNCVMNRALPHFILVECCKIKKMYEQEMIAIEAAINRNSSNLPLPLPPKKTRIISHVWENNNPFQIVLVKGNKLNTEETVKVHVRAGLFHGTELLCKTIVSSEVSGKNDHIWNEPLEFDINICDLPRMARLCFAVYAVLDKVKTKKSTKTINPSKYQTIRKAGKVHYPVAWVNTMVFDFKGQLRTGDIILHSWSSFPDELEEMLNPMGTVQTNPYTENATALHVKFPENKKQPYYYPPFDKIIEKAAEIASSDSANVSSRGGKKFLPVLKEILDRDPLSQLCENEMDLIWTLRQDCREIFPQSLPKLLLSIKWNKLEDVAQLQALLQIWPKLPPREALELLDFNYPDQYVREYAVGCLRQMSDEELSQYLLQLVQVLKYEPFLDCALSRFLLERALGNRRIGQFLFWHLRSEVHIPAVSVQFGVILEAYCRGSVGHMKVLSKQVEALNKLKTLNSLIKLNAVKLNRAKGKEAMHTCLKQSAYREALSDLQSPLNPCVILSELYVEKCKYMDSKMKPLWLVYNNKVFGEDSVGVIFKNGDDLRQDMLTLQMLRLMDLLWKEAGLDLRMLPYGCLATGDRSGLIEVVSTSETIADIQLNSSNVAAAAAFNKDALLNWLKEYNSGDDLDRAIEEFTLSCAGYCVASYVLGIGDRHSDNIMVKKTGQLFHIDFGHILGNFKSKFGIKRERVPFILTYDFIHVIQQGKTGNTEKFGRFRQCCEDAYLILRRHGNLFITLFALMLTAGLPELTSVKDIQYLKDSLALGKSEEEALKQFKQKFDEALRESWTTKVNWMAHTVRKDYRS
p110β, sequence (P27986 whole entry partner): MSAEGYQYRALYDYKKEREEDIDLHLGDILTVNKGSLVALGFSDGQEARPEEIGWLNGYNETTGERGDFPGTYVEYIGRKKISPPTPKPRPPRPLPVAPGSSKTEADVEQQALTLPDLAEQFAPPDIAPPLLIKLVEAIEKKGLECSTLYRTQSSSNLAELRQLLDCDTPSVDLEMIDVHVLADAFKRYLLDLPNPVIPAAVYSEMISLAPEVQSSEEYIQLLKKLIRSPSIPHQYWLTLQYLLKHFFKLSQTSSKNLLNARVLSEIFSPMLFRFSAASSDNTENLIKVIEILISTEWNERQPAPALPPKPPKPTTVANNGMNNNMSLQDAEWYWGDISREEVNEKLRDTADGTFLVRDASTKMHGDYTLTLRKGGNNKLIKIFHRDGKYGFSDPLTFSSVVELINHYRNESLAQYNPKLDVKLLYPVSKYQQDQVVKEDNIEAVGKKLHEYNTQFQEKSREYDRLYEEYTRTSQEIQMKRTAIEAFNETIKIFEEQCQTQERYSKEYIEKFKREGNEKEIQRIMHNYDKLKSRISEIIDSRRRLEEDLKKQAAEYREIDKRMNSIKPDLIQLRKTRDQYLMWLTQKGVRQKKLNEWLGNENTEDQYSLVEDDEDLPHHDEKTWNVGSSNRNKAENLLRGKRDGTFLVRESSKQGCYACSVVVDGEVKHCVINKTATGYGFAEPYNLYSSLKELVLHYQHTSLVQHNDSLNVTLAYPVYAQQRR

## CC(=O)N1CCN(c2nc3c(N4CCOCC4)nc(-c4cnc(N)nc4)nc3n2CC(F)(F)F)C[C@H]1C [DS, 1-{(2R)-4-[2-(2-Aminopyrimidin-5-yl)-6-(morpholin-4-yl)-9-(2,2,2-trifluoroethyl)-9H-purin-8-yl]-2-methylpiperazin-1-yl}ethan-1-one]
p110β
  IC50: 1140 nM
U87 glioma cells; U87 tumor-bearing mice, 6 mg/kg oral, control 30 days, P=0.025
  median survival time: 46 days
U87 glioma cells; treated mice
  toxic effects in mice with intracranial xenograft tumors: without causing any obvious toxic effects
GSC11 GICs
  median survival: 61 days
LN229
  effect on median survival: no effect on median survival
[1]
  pAkt and pS6 staining in U87 tumors: marked reduction
Akt phosphorylation
  time of maximum effects on Akt phosphorylation: 8 h
